Laboratory results taken from patent US20250257075A1, “MACROCYCLIC INHIBITORS OF KRAS FOR THE TREATMENT OF CANCER” (Hoffmann-La Roche Inc., priority 2022, published 2025).

Key:
AGS cells (KRAS G12D) = experiment: Cell viability assay, G12D; format: cell-based, human; settings: Homo sapiens, 72 hrs, Cell Counting Kit-8
Procedure, shortened: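 72-hr compound treatment, 0.5% DMSO final; NCI-H358 seeded 5,000 cells/well, AGS and SW620 2,000 cells/well. Endpoint: CCK-8, 2-hr development, OD450 minus OD650.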

[1] = system: phosphorylation of ERK, KRAS G12V in SW620; experiment: pERK inhibition assay, G12V; format: cell-based, human; settings: Homo sapiens, SW-620; SW620, 4 hours of incubation
Procedure, shortened: (§1)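 NCI-H358 (G12C), AGS (G12D) and SW620 (G12V) cells were seeded overnight at 30,000, 20,000 and 30,000 cells/well, respectively. They were then treated 4 h with compound (0.5% DMSO final), fixed, and methanol-permeabilized. pERK was detected by in-cell ELISA (anti-pERK/HRP, TMB, OD450); IC50 from a 4-parameter sigmoidal fit.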

[2] = system: phosphorylation of ERK, KRAS G12D in AGS cells; experiment: pERK inhibition assay, G12D; format: cell-based, human; settings: Homo sapiens, 4 hours of incubation
Procedure, shortened: as §1

[3] = target: KRAS G12D binding to BRAF (Homo sapiens, UniProt P01116+P62937, G12D); experiment: KRAS-BRAF with CYPA (500 nM) interaction assay (TR-FRET), G12D; format: biochemical; settings: 3 hours
Chain of KRAS G12D binding to BRAF (P01116 1-188 isoform P01116-2 G12D): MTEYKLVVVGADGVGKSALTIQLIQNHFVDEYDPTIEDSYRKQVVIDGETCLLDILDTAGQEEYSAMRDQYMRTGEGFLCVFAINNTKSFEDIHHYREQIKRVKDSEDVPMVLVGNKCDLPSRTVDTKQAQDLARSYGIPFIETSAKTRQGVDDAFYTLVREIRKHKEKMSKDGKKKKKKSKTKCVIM
Chain of KRAS G12D binding to BRAF (P62937 whole entry): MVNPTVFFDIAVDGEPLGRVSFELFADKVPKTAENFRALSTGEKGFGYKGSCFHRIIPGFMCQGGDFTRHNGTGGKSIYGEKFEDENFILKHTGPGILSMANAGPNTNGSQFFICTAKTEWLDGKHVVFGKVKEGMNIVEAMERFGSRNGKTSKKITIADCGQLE
Procedure, shortened: (§2)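 TR-FRET (Ex320 nm, Em 665/615 nm) measured compound- or compound-CYPA-dependent disruption of KRAS-BRAF complex, with CYPA at 500 nM. Disruption scored as decrease in TR-FRET ratio versus DMSO control wells.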

[4] = system: phosphorylation of ERK, KRAS G12C in NCI-H358 cells; experiment: pERK inhibition assay, G12C; format: cell-based, human; settings: Homo sapiens; NCI-H358, 4 hours of incubation
Procedure, shortened: as §1

[5] = target: KRAS G12V binding to BRAF (Homo sapiens, UniProt P01116+P62937, G12V); experiment: KRAS-BRAF with CYPA (500 nM) interaction assay (TR-FRET), G12V; format: biochemical; settings: 3 hours
Chain of KRAS G12V binding to BRAF (P01116 1-188 isoform P01116-2 G12V): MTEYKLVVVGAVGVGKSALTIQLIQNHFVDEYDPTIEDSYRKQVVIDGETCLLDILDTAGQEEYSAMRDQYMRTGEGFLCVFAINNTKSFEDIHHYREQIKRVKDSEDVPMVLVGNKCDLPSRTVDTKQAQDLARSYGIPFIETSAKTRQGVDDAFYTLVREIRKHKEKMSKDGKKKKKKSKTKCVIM
Chain of KRAS G12V binding to BRAF (P62937 whole entry): as the sequence (P62937 whole entry) above
Procedure, shortened: as §2

[6] = Single Dose Pharmacokinetics (SDPK) study in female BALB/c mice; format: in vivo; settings: mouse; for clearance: 3 mg/kg, iv; for clearance / AUC(0-t) / Cmax: female BALB/c mice, plasma
Method: The purpose of this study was to determine the pharmacokinetics of selected compounds following single intravenous bolus or oral gavage administration in female BALB/c mice. Briefly, two groups of female BALB/c mice (available from Zhejiang Vital River Laboratory Animal Technology Co., Ltd. or Shanghai Lingchang Biotechnology Co., Ltd) (N=3/group) were treated with a single dose of compound intravenously at 3 mg/kg (IV) or orally at 30 mg/kg (PO). Blood samples were collected at 5 min (only for IV), 15 min, 30 min, 1 h, 2 h, 4 h, 7 h and 24 h post-dose. Blood samples were placed on ice until centrifugation to obtain plasma samples. The concentration of compound in plasma samples was determined using LC-MS/MS method. The pharmacokinetic parameters were calculated by non-compartmental analysis.

SMILES	IC50 (AGS cells (KRAS G12D)) [µM]	IC50 [1] [µM]	IC50 [2] [µM]	IC50 [3] [µM]	IC50 [4] [µM]	IC50 [5] [µM]	AUC0-last relative to A168 ([6]; 30 mg/kg, po, versus A168) [folds]	Cmax relative to A168 ([6]; 30 mg/kg, po, versus A168) [folds]	clearance [6] [mL/min/kg]	AUC(0-t) ([6]; 30 mg/kg, po) [ng·h/mL]	Cmax ([6]; 30 mg/kg, po) [ng/mL]
CO[C@@H](C)c1ncc(N2CCN(C)CC2)cc1-c1c2c3cc(c(F)cc3n1CC(F)(F)F)-c1csc(n1)C[C@H](NC(=O)[C@H](C(C)C)N(C)C(=O)[C@H]1C[C@@H](C#CC(F)(F)F)C1)C(=O)N1CCC[C@H](N1)C(=O)OCC(C)(C)C2 (atropisomer, axis not shown; (M)) [Example 3, cis-N-[(1S)-1-[[(7S,13S)-24-fluoro-(20M)-20-[2-[(1S)-1-methoxyethyl]-5-(4-methylpiperazin-1-yl)-3-pyridyl]-17,17-dimethyl-8,14-dioxo-21-(2,2,2-trifluoroethyl)-15-oxa-4-thia-9,21,27,28-tetrazapentacyclo[17.5.2.1^2,5.1^9,13.0^22,26]octacosa-1(25),2,5(28),19,22(26),23-hexaen-7-yl]carbamoyl]-2-methyl-propyl]-N-methyl-3-(3,3,3-trifluoroprop-1-ynyl)cyclobutanecarboxamide]	3.57	0.009	0.378	> 10	0.007	> 10					
CCn1c(-c2cc(N3CCN(CC(F)(F)F)CC3)cnc2[C@H](C)OC)c2c3cc(c(F)cc31)-c1csc(n1)C[C@H](NC(=O)[C@H](C(C)C)N(C)C(=O)[C@H]1C[C@@H](C#CC(F)(F)F)C1)C(=O)N1CCC[C@H](N1)C(=O)OCC(C)(C)C2 (atropisomer, axis not shown; (M)) [Example 8, cis-N-[(1S)-1-[[(7S,13S)-21-ethyl-24-fluoro-(20M)-20-[2-[(1S)-1-methoxyethyl]-5-[4-(2,2,2-trifluoroethyl)piperazin-1-yl]-3-pyridyl]-17,17-dimethyl-8,14-dioxo-15-oxa-4-thia-9,21,27,28-tetrazapentacyclo[17.5.2.1^2,5.1^9,13.0^22,26]octacosa-1(25),2,5(28),19,22(26),23-hexaen-7-yl]carbamoyl]-2-methyl-propyl]-N-methyl-3-(3,3,3-trifluoroprop-1-ynyl)cyclobutanecarboxamide]	> 5	0.125	> 10	> 10	0.005	> 10					
CCn1c(-c2cc(N3CCOCC3)cnc2[C@H](C)OC)c2c3cc(c(F)cc31)-c1csc(n1)C[C@H](NC(=O)[C@H](C(C)C)N(C)C(=O)[C@H]1C[C@@H](C#CC(F)(F)F)C1)C(=O)N1CCC[C@H](N1)C(=O)OCC(C)(C)C2 (atropisomer, axis not shown; (M)) [Example 11, cis-N-[(1S)-1-[[(7S,13S)-21-ethyl-24-fluoro-(20M)-20-[2-[(1S)-1-methoxyethyl]-5-morpholino-3-pyridyl]-17,17-dimethyl-8,14-dioxo-15-oxa-4-thia-9,21,27,28-tetrazapentacyclo[17.5.2.1^2,5.1^9,13.0^22,26]octacosa-1(25),2,5(28),19,22(26),23-hexaen-7-yl]carbamoyl]-2-methyl-propyl]-N-methyl-3-(3,3,3-trifluoroprop-1-ynyl)cyclobutanecarboxamide]	> 10	0.187	3.77	> 10	0.011	> 10	1.5	~2	14.2	2180	1510
CC#CC(=O)N1CC[C@H](C(=O)N(C)[C@H](C(=O)N[C@H]2Cc3nc(cs3)-c3ccc4c(c3)c(c(-c3cccnc3[C@H](C)OC)n4CC)CC(C)(C)COC(=O)[C@@H]3CCCN(N3)C2=O)C(C)C)C1 [Example A168, reference compound]	2.19	0.176		> 10	0.053	3.62			77	1580	794
